Non-standard residues stand in square brackets, D forms with d. No end group written: not given here. Nle = CCCC[C@H](N)C(=O)O
What was measured:
c-Met = c-Met (Homo sapiens, UniProt P08581); experiment: Immunoprecipitation/Western blot of HGF-dependent c-Met and Gab1 phosphorylation and association in HEK293 cells; format: cell-based; design: host or cells: HEK293; conditions: HEK293 cells, 10 minutes
Experimental: (FIG. 5A) HEK293 cells were treated for 10 minutes with HGF at indicated concentrations. Lysates were immunoprecipitated (IP) with anti-c-Met antibody (DO-24) and immunoblotted (IB) with anti-c-Met or anti-phospho-tyrosine (06-427) antibody. (FIG. 5B) HEK293 cells were treated for 10 minutes with HGF and/or Norleual. Lysates were IP with anti-c-Met (DO-24) and IB with anti-c-Met (DQ-13) or anti-phospho-tyrosine (HAM 1676). (FIG. 5C) HEK293 lysates were IP with anti-c-Met (DO-24) and IB with anti-Gab1. (FIG. 5D) HEK 293 lysates were IP with anti-Gab1 and IB with anti-Gab1 or anti-phospho-tyrosine (HAM 1676). (FIGS. 5E, 5F, 5G) Relative amounts (normalized to % total c-Met in IP) of quantified IP/IB band intensities for control, 110 pM HGF-, 110 pM HGF and 20 pM Norleual-, and 20 pM Norleual-treated HEK293 cells for phospho-c-Met (FIG. 5E, n=4), phospho-Gab1 (FIG. 5F, n=4), and c-Met associated Gab1 (FIG. 5G, n=3). Error bars indicate ±SD.
HEK293 cells were treated for 10 minutes with HGF and/or Norleual at the indicated concentrations. Lysates were IP with anti-c-Met (DO-24, Millipore/Upstate, Billerica, Mass.) and IB with anti-c-Met (DQ-13, Millipore/Upstate) or anti-phosphotyrosine (HAM1676, lot JLB03, R&D Systems, Inc., Minneapolis, Minn.).
Immunoprecipitation and Western blotting. Cells were serum starved for two hours in DMEM before treatment. Cells were harvested using RIPA lysis buffer (Upstate Biotechnol. Inc., Lake Placid, N.Y.) with phosphatase inhibitor cocktails 1 and 2 (Sigma, St Louis, Mo., USA). Protein concentration was determined using the BCA assay (Pierce, Rockford, Ill., USA). Lysates were incubated with antibody overnight at 4° C. Immunoprecipitation controls received mouse non-specific Ig (Upstate). Proteins were captured with protein-A agarose (Upstate) and were washed with PBS. Proteins were resolved using SDS-PAGE electrophoresis (Criterion, BioRad, Hercules, Calif., USA), transferred to nitrocellulose, and incubated with appropriate antibodies. Proteins were visualized using the Supersignal West Pico Chemiluminescent Substrate system (Pierce). The film images were digitized and analyzed using TotalLab® software (AmershamPharmacia/GE HealthCare, Piscataway, N.J.).
Whether the interaction of Norleual with the c-Met receptor had functional consequences regarding c-Met signaling was next investigated by determining whether Norleual could alter the phosphorylation status of cellular protein tyrosine phosphate (FIG. 4) and more specifically, of c-Met (i.e., c-Met activation), and also whether Norleual could modulate Gab1 association with c-Met. Human embryonic kidney HEK293 cells were activated by HGF in the presence or absence of Norleual. Solubilized membranes were immunoprecipitated (IP) with an anti-c-Met antibody and immunoblotted (IB) for total c-Met, anti-phospho-tyrosine to detect the activated form of c-Met, and anti-Gab1 to detect c-Met/Gab1 association. […] To confirm these findings, treated HEK293 lysates were precipitated with anti-Gab1 and blotted for total Gab1 and phospho-Gab1, its activated form. Again, Norleual inhibited HGF-induced Gab1 phosphorylation (FIGS. 5D, […]).

c-Met receptor = experiment: Cross-linking of 125I-COMPOUND 2 or 125I-HGF to HEK293 cell membranes with unlabeled competitor; format: binding, human; conditions: cross-linked, 1 nM competitor
Experimental: (§1) FIG. 3C: ^125I-Norleual was bound to HEK membranes in the presence or absence of 1.5 nM HGF (n=8) or 1 μM Norleual (n=6). Total binding is reported as percent control (n=10), (*p<0.001). Error bars indicate±SD. […] Error bars indicate SD and data points were performed in duplicate.
Briefly, COMPOUND 2 was iodinated with […] and bound and cross-linked to HEK cell membranes with or without 1 nM COMPOUND 2 or 1 nM hepatocyte growth factor. Following solubilization and separation of free label by molecular sieving, total radioactive counts were determined. The ability of the ligand COMPOUND 2 to compete with hepatocyte growth factor binding to the c-Met receptor was also tested using mouse liver plasma membranes and intact HEK293 cells. Briefly, mouse liver was homogenized and incubated with ^125I-HGF with various concentrations of HGF or COMPOUND 2. Membranes were pelleted and unbound label was removed by washing, and total radioactive counts were determined. Next, HEK293 cell membranes were cross-linked with ^125I-HGF with unlabeled HGF or COMPOUND 2.

[1] = test system: HEK293 cell membranes (c-Met system); experiment: 125I-Norleual binding assay, HEK293 cell membranes; design: species or system human; conditions: 1.5 nM HGF or 1 μM Norleual
Experimental: as §1
^125I-Norleual binding assay. HEK293 cells were grown to confluency in DMEM fortified with 10% FBS. Media was aspirated and cells were washed twice with ice-cold PBS. Cells were lysed with hypotonic buffer and homogenized as described by Zhang et al. (1999, J. Pharmacol. Exp. Ther. 289: 1075-1083; 2003 J. Cell Biochem. 88: 408-417). 450 μg of membrane protein was incubated with 1.5 nM ^125I-Norleual with or without Norleual or HGF in a total volume of 250 μl PBS, 0.1% BSA. Tubes were spun and binding was carried out for 60 minutes at RT. Bound and free ligands were separated by vacuum filtration using (Brandel Cell Harvester, Schleicher & Schull, Keene, N.H., USA) 32 glass filters. Radioactivity retained by the filters was measured using a gamma counter. […] Data analysis was preformed using Prism software (GraphicPad) per the supplier's recommendations.
Materials and methods were as described in Example 1. In separate tests of unlabeled competitors, both Norleual and HGF competed with ^125I-HGF for high affinity binding to mouse liver plasma membranes (FIGS. 2A, 2B). […]

neovascularization = experiment: Disc angiogenesis assay (subcutaneous sponge disc); format: in vivo, Sprague Dawley rats; conditions: 50 μg per disc core, 14 days, rat
Experimental: FIG. 19 depicts effects on angiogenesis of angiotensin-like factors in a rat in vivo disc angiogenesis assay. Vascularization was quantified by digital image analysis of fixed and stained discs recovered from animals 14 days after subcutaneous implantation of sponge discs containing the indicated compounds.
Disc Angiogenesis Assay. […] A 2 mm core was removed from the center of each disc, saturated with 50 μg of Nle^1-AngIV (SEQ ID NO:41), Nle^1-Leu^3-Ψ(CH2NH2)^3-4-AngIV, Hexamide, or ethanol (control), air dried, then sealed using a fixative (Elvax, DuPont) to allow sustained delivery of the drug treatment into the disc and adjacent tissues. The cores were dried for 30 min, then reinserted into the sponge discs. Impermeable top and bottom covers were prepared by coating 10 mm diameter paper discs with a plexiglass coating, then glued to the top and bottom of the sponge discs, leaving only the rim of the disc available for centripetal cellular penetration. Just prior to implantation, the discs were soaked briefly in sterile saline.
Thirty-two Sprague Dawley female rats (225-275 gr) were used to evaluate four compounds for angiogenic or anti-angiogenic properties using the disc angiogenesis assay. Animals were anesthetized using sodium pentobarbital (40 mg/kg IP). The dorsum was then shaved and aseptically prepped. Each animal received four discs. Animals receiving treated discs were implanted with 2 treated discs and 2 ethanol-soaked control discs. Thus, in a group of 4 animals there were 8 treatment discs, and 8 control discs. These control discs were used to determine whether the ligand had potential systemic effects. Another group of 4 animals received only ethanol-soaked control discs (spontaneous growth controls or SGC discs) for an n=16. However, one SGC was fragmented during processing leaving an n=15.
Four 2 cm cutaneous incisions were made along the dorsum (left thoracic, right thoracolumbar, left thoracolumbar, and right lumbar), and subcutaneous pouches opened in the fascia using blunt dissection. Discs were moistened in sterile saline, inserted deep to the pouch, and the skin closed with sterile surgical staples. Animals were recovered under heat lamps until sternally recumbent, then individually housed for 14 days in an AAALAC accredited facility (water and food ad libitum; 12/12 hour light cycle).
After 14 days the animals were euthanized in a CO2 chamber and the discs were removed. […] Cellular penetration into the discs was quantified using a digital imaging system (Imaging Research Inc., St. Catharines, Ontario, Canada). The total area of the disc was calculated, as was the area containing stained cells. […]
Results. Following staining with toludine blue or Factor VIII, neovascularization was quantitated by densitometry.

human endothelial cells = experiment: Proliferation and migration of human endothelial cells; format: cell-based

Chain of c-Met (P08581 308-1390 limits assumed): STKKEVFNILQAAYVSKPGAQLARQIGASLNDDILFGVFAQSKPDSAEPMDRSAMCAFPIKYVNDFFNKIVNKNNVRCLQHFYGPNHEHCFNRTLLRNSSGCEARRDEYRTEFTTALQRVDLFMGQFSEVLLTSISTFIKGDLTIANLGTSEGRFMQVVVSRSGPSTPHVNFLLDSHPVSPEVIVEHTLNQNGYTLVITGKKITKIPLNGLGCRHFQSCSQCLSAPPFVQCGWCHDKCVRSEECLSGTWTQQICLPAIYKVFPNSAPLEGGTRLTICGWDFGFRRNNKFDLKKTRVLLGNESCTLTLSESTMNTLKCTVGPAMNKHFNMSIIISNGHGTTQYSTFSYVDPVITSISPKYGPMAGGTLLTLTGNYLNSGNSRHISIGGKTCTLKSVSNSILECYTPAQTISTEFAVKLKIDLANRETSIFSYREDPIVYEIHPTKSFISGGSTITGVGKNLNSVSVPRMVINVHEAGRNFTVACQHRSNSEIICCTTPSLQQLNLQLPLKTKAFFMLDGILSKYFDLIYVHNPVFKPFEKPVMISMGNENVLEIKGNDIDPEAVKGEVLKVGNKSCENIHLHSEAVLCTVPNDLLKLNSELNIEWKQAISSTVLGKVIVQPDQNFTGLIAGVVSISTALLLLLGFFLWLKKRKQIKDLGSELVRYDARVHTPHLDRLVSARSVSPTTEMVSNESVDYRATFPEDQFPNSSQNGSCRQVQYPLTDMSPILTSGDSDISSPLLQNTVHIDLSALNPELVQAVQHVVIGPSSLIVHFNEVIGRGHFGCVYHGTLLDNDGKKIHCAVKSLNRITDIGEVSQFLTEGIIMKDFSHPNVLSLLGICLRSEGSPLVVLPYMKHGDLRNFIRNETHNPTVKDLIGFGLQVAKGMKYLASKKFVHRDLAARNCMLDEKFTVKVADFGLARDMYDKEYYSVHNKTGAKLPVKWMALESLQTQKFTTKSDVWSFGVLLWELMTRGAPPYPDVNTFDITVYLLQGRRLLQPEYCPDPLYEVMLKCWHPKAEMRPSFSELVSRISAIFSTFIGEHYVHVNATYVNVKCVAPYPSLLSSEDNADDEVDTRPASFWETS
Chain of c-Met (P08581 25-307 limits assumed): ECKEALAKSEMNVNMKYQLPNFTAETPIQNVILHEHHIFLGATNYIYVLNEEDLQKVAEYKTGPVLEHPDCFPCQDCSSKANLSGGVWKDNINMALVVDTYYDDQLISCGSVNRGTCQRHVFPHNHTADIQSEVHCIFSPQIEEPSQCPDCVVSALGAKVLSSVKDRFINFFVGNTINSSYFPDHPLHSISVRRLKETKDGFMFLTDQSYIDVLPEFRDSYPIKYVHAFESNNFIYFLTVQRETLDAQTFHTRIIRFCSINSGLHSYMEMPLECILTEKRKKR

Substance	Concentration at which c-Met auto-phosphorylation saturates (c-Met) [pM]	Effect on 125I-COMPOUND 2 binding to HEK cells (c-Met receptor)	Competition for 125I-Norleual specific binding to HEK293 cell membranes [1]	Effect on angiogenesis in disc assay versus SGC discs (neovascularization)	Proliferation and migration of human endothelial cells (human endothelial cells)
HGF: Hepatocyte growth factor (SEQ ID NO:83), purchased from R&D systems; native ligand of the c-Met receptor	550	blocked	competed		
Nle-Tyr-Ile-6(amino) hexanoic acid amide [Compound 4]				antagonist activity	
Nle-Tyr-Ile-His ([Nle]YIH) [Compound 3]				antagonist activity	
Nle-Tyr-Ile-His-Pro-Phe ([Nle]YIHPF) [Compound 1]				lone AT4 receptor agonist	augmented
